“Also recorded” adds a separate entry of the source. Like-named read-outs stand apart in the source and are kept apart here. No end group written: not given here.
What was measured:
[1] = test system: F. graminearum CBS185.32 strain; format: cell-based, Fusarium graminearum
[2] = test system: F. graminearum CBS185.32 strain; format: cell-based, Fusarium graminearum; remark: listed apart in the source
[3] = test system: F. graminearum CBS185.32 strain; format: cell-based, Fusarium graminearum; remark: listed apart in the source
[4] = test system: F. graminearum strain 8/1; conditions: cited from earlier work
bacterial growth = conditions: cited from earlier work

Substance	DON production ([1]; 50 µM)	15-ADON production ([2]; 50 µM)	Effect on fungal growth (fungal biomass weight) ([3]; 50 µM)	Effect on fungal growth (dry fungal biomass weight) [3]	also measured
C(CH3)GNFLKRTC(CH3)IC(CH3)VKK [TC3-CH3-123, TC3 with all Cys capped with CH3 groups]	significantly more	significantly more	–	–	–
C(CH3)GNFLKRTCICVKK (disulfide) [TC3-CH3-1Ox, TC3-CH3-1 oxidized, cyclized through the non-capped Cys]	reduction	reduction	significantly less effect	–	Reduction of 15-ADON production ([2]; 50 µM): about 42%
C(CH3)GNFLKRTCICVKK [TC3-CH3-1, TC3 with Cys1 capped with a methyl group]	reduction	reduction	significantly less effect	–	Reduction of 15-ADON production ([2]; 50 µM): about 33%
CGNFLKRTC(CH3)ICVKK (disulfide) [TC3-CH3-2Ox, TC3-CH3-2 oxidized, cyclized through the non-capped Cys]	–	–	significantly less effect	–	–
CGNFLKRTC(CH3)ICVKK [TC3-CH3-2, TC3 with Cys9 capped with a methyl group]	–	–	significantly less effect	–	–
CGNFLKRTCIC(CH3)VKK (disulfide) [TC3-CH3-3Ox, TC3-CH3-3 oxidized, cyclized through the non-capped Cys]	–	–	significantly less effect	–	–
CGNFLKRTCIC(CH3)VKK [TC3-CH3-3, TC3 with Cys11 capped with a methyl group]	–	–	significantly less effect	–	–
CGNFLKRTCICVKK (disulfide (positions not given here)) [TC3Ox]	significantly decreased	significantly decreased	–	reduced effect	DON production ([1]; 25 µM): significantly decreased; 15-ADON production ([2]; 25 µM): significantly decreased
CGNFLKRTCICVKK [TC3, γ-core of the Ixodes ricinus defensin DefMT3, reduced (linear) form]	trace amounts; also recorded: abrogated	trace amounts; also recorded: abrogated	–	significant dose-dependent inhibition	Reduction of fungal growth (fold) ([3]; 50 µM): 1.8 times; DON production ([1]; 12.5 µM): non-significant reduction; DON production ([1]; 25 µM): trace amounts; 15-ADON production ([2]; 12.5 µM): non-significant reduction; 15-ADON production ([2]; 25 µM): trace amounts; Effect on germination [4]: decrease germination; Effect on bacterial growth (bacterial growth): little or no effect
CGNFLKRTCICVKT [TC3-K14T, TC3 with Lys 14 substituted by Thr]	–	–	–	no effect	–

— article PMC8042122 (Scientific Reports, 2021)
